Converted amounts (≈) assume the structure as drawn. “And” between values parts separate entries of the source, which are not always exact repeats. Equal values may be shown once. Read-outs that look alike come from different tables or passages of the source.
Experiments:
Hepatitis B Virus (HBV) = test: HBV proteins and nucleic acids in 2.2.15 cells; type: cell-based; settings: Day 9, 2.2.15 cells; robustaflavone @10 μM
Procedure: Values of HBV proteins were determined by semi-quantitative EIA performed as previously described.^83 For the EIA analyses, test samples-were diluted (2- to 10-fold) so that the assay values produced were within the linear dynamic range of the EIA assays. Standard curves using serial dilutions of positive assay controls were included in each set of EIA analyses. HBV surface antigen ([…]), preSI protein, and HBc antigen ([…]) are released as extracellular products and were therefore analyzed in culture medium obtained 24 h following the last treatment dose of oligonucleotides or 2′, 3′-ddc. HBV core antigen (HBcAg) is an intracellular viral protein and was assayed in cell extracts produced by Triton-X-100 lysis.^83
Cultures for HBV RNA were maintained on 6-well plates, cultures for HBV virion DNA analyses were maintained on either 96- or 24-well plates, and cultures for all other HBV parameters were maintained on 24-well plates.
The concentrations of antiviral agents used in these studies approximates the EC50 values of the individual agents against intracellular HBV DNA replication intermediates (HBV RI). Cultures were treated with the indicated agents for 9 days using standard procedures. Values reported are the levels of the indicated HBV markers at the end of the treatment period (“DAY 9”) expressed as a percentage (±standard deviation (S.D.) of the average levels in the control cultures at the beginning of the treatment period (“DAY 0”). The method of expression permits an analysis of the variation of the HBV markers in the untreated (control) cultures over the course of the treatment period. HBV nucleic acid levels were measured by standard blot hydridization (dot, Southern, or Northern). HBV protein levels were measured by standard semi-quantitative EIA methods. Cultures for HBV RNA were maintained in 6-well culture plates. The levels of each of two major classes of HBV RNA transcripts are listed separately. Cultures for all other HBV markers were maintained in 24-well culture plates. For each treatment, a total of 4 separate cultures were used for the analysis of each HBV marker at both DAY 0 and DAY 9.
Determination of Mechanism of Action. Measurements of intracellular and extracellular HBV DNA, 3.6 kb and 2.1 kb mRNA fragments, and HBsAg, HBeAg and HBcAg protein markers were conducted as previously described (93).

[1] = test system: Influenza A (H1N1) Texas/36/91; test: microbe, parasite or virus in culture; type: cell-based, influenza A virus; settings: Influenza A virus, MDCK; Influenza A (H1N1) Texas/36/91; read-out: CPE Inhibition EC50
[2] = test system: Influenza A (H1N1) Texas/36/91; test: microbe, parasite or virus in culture; type: cell-based, influenza A virus; settings: Influenza A virus, MDCK; Influenza A (H1N1) Texas/36/91; read-out: Neutral Red EC50
Measles Virus [3] = test: microbe, parasite or virus in culture; type: cell-based; settings: Measles morbillivirus, BSC-1; Measles Virus; read-out: CPI Inhibition EC50
Measles Virus [4] = test: Measles virus neutral red dye uptake in BSC-1 cells; type: cell-based; settings: Measles morbillivirus, BSC-1
Adenovirus Type 5 = test: Adenovirus type 5 neutral red dye uptake in A549 cells; type: cell-based; settings: Human mastadenovirus C, A549; Adenovirus Type 5; read-out: Neutral Red EC50
[5] = test system: Parainfluenza Type 3 Virus; test: organism not typed; type: cell-based; settings: MA104; Parainfluenza Type 3 Virus; read-out: CPI Inhibition EC50
[6] = test system: Parainfluenza Type 3 Virus; test: organism not typed; type: cell-based; settings: MA104, read-out: Neutral Red EC50
[7] = test system: Respiratory Syncytial Virus; test: microbe, parasite or virus in culture; type: cell-based; settings: human respiratory syncytial virus, MA104; read-out: Neutral Red EC50
HIV-1 RT = molecular target: T1, HIV-1 RT (Human immunodeficiency virus type 1 group M subtype B, UniProt P03366); test: Anti-HIV-1 RT assay (recombinant enzyme); type: biochemical
T1 construct: made in house; host or cells: Escherichia coli

in vitro [8] = settings: dog
in vitro [9] = settings: dog, Neutral Red IC50 (cytotoxic)
in vitro [10] = settings: African green monkey
in vitro [11] = settings: African green monkey; remark: listed apart in the source
HCMV = HCMV CPE inhibition in HFF cells
HSV-2 = HSV-2 CPE inhibition in HFF cells; settings: for HSV-2 SI (CC50/EC50): HFF Cells
[12] = Cytotoxicity by neutral red dye uptake, A549 cells; settings: human
[13] = Cytotoxicity by neutral red dye uptake, MA-104 cells; settings: African green monkey, Neutral Red IC50 (cytotoxic)
[14] = range-finding, CMC vehicle, 200 mg/kg/day i.p. twice daily for 5 days
[15] = range-finding, DMSO, 75 mg/kg/day, 0.05 mL injection volume
[16] = range-finding, DMSO, 250 mg/kg/day i.p. twice daily for 5 days, 0.1 mL
[17] = robustaflavone in DMSO, 37.5 mg/kg/day i.p. bid × 5
[18] = robustaflavone in DMSO, 75 mg/kg/day i.p. bid × 5

In the case of `O=c1cc(-c2ccc(O)c(-c3c(O)cc4oc(-c5ccc(O)cc5)cc(=O)c4c3O)c2)oc2cc(O)cc(O)c12` [Robustaflavone (3), robustaflavone], the “Viral Antigens: HBeAg” value (Hepatitis B Virus (HBV)) is reported as 86 ± 6 % of Day 0 Control, the “Viral Antigens: HBsAg” value (Hepatitis B Virus (HBV)) is reported as 97 ± 6 % of Day 0 Control and the “Viral Antigens: HbcAG” value (Hepatitis B Virus (HBV)) is reported as 138 ± 8 % of Day 0 Control. For the same compound, the “Viral DNA: Extracellular DNA” value (Hepatitis B Virus (HBV)) was 1 ± 1 % of Day 0 Control, the “Viral DNA: Intracellular DNA” value (Hepatitis B Virus (HBV)) was 5 ± 1 % of Day 0 Control and the “Viral mRNA: 3.6 kb and 2.1 kb mRNA (first column)” value (Hepatitis B Virus (HBV)) was 93 ± 10 % of Day 0 Control. For the same compound, the EC50 [1] was 1.9 mg/L (≈ 3.53 µM), the EC50 [2] was 2 mg/L (≈ 3.71 µM) and the EC50 (Measles Virus [3]) was under 14 mg/L. It also gave an EC50 (Measles Virus [4]) of under 30 mg/L, an EC50 (Adenovirus Type 5) of over 100 mg/L and an EC50 [5] of over 100 mg/L. The EC50 [6] was 39 mg/L (≈ 72.4 µM), the EC50 [7] was about 56 mg/L (≈ 104 µM) and the IC50 (HIV-1 RT; Anti-HIV-1 RT IC50, values in parentheses or in words) was 65 µM. The IC50 (HIV-1 RT; HIV-1 RT IC50 (50% inhibition dose)) was 62.6 µM and 65.4 µM, the inhibition at 200 µg/mL (HIV-1 RT; read-out: Anti-HIV-1 RT % Inhibition at 200 μg/ml) was 91.4% and the “tolerability in the antiviral experiment (in words)” value (CMC, 200 and 100 mg/kg/day) was “well tolerated”. For the same compound, the “toxicity control mice killed” value (DMSO, 37.5 mg/kg/day) was 2 of 3, the “toxicity in the antiviral experiment (in words)” value (DMSO, 75 mg/kg/day) was “lethally toxic” and the “toxicity in the antiviral experiment (in words)” value (DMSO, 75 and 37.5 mg/kg/day) was “toxic to the mice”. For the same compound, the “Toxicity Controls Surv/Total” value (female, BALB/c, mouse, in vivo, ip, 200 mg/kg/day) was 3/3, the “Toxicity Controls Mean Weight Change” value (mouse, in vivo, ip, 200 mg/kg/day) was 1.5 g and the “Toxicity Controls Mean Weight Change” value (mouse, in vivo, ip, 1005 mg/kg/day) was 1.9 g. For the same compound, the “tolerability (in words)” value [14] was “reasonably well tolerated”, the “weight lost in the 5-day treatment period” value [14] was 0.1 g and the “survival (in words)” value [15] was “all mice survived”. The “weight lost during the 5-day treatment period” value [15] was 2 g, the “tolerability (in words)” value [16] was “lethally toxic” and the weight loss [16] was 6 g. The “Toxicity Controls Surv/Total” value (robustaflavone in 0.4% CMC, 1005 mg/kg/day (so in the source) i.p. bid × 5) was 4/4, the “Toxicity Controls Mean Weight Change” value [17] was -0.8 g and the “Toxicity Controls Surv/Total” value [17] was 1/3. The “Toxicity Controls Mean Weight Change” value [18] was -1.7 g, the “Toxicity Controls Surv/Total” value [18] was 0/3 and the IC50 (in vitro [8]; CPE Inhibition IC50 (50% cell inhibitory (cytotoxic) concentration), Influenza A (H1N1) test) was 18 mg/L (≈ 33.4 µM). The IC50 (in vitro [8]; CPE Inhibition IC50 (cytotoxic), Influenza A (H3N2) test) was 32 mg/L (≈ 59.4 µM), the IC50 (in vitro [8]; CPE Inhibition IC50 (cytotoxic), Influenza B test) was about 100 mg/L (≈ 186 µM) and the IC50 (in vitro [9]; Influenza A (H1N1) test) was about 32 mg/L (≈ 59.4 µM). The IC50 (in vitro [9]; Influenza A (H3N2) test) was about 100 mg/L (≈ 186 µM), the IC50 (in vitro [9]; Influenza B test) was 100 mg/L (≈ 186 µM) and the IC50 (in vitro [10]) was under 14 mg/L. For the same compound, the IC50 (in vitro [11]; CPE Inhibition IC50 (cytotoxic), Respiratory Syncytial Virus test) was 56 mg/L (≈ 104 µM), the IC50 (in vitro [11]; CPI Inhibition IC50 (cytotoxic), Parainfluenza Type 3 Virus test) was 56 mg/L (≈ 104 µM) and the “HCMV SI (CC50/EC50)” value (HCMV; HFF Cells) was over 1.8. The EC50 (HCMV; Human betaherpesvirus 5, HFF, read-out: HCMV CPE Inhibition EC50) was 54.8 mg/L (≈ 102 µM), the “HSV-2 SI (CC50/EC50)” value (HSV-2; listed as Robustaflavone(3)) was over 11.8 and the “HSV-2 SI (CC50/EC50)” value (HSV-2; listed as robustaflavone (3)) was over 11.8. The EC50 (HSV-2; Human alphaherpesvirus 2, HFF, read-out: HSV-2 CPE Inhibition EC50) was 8.5 mg/L (≈ 15.8 µM), the IC50 [12] was 102 mg/L (≈ 189 µM) and the IC50 ([13]; Parainfluenza Type 3 Virus test) was 79 mg/L (≈ 147 µM). For the same compound, the IC50 ([13]; Respiratory Syncytial Virus test) was about 100 mg/L (≈ 186 µM).

Reference: patent US6399654B1, “Biflavanoids and derivatives thereof as antiviral agents” (priority 1995, dated 2002)
